The values below come from US20160031817A1, “3-PIPERIDONE COMPOUNDS AND THEIR USE AS NEUROKININ-1 (NK1) RECEPTOR ANTAGONISTS” (NANYANG TECHNOLOGICAL UNIVERSITY, priority 2013, published 2016).

For `Oc1ccc(OC(F)(F)F)cc1C1COC2(CCCNC2c2ccccc2)C1` (racemic) [rac-3, rac-2-(6-phenyl-1-oxa-7-azaspiro[4.5]decan-3-yl)-4-(trifluoromethoxy)phenol], the melting point is 203 to 204 °C (dec.).

By melting point is commonly meant the temperature of the solid-liquid transition.
